The numbers were not newly measured in US6107321A, “Diazabicyclooctane derivatives having selective 5-HT1Dalpha agonist activity” (Merck Sharp & Dohme Ltd., priority 1995, dated 2000), which cites them from elsewhere.

Data set [1] relates to human 5-HT1D.sbsb.α and 5-HT1D.sbsb.β receptor subtypes. The following applies: cf. WO-A-91/17174, Table 1.
In the next data set the test system is humans. The following applies: therapeutic doses.

With `CNS(=O)(=O)Cc1ccc2[nH]cc(CCN(C)C)c2c1` [sumatriptan], the “discrimination between the human 5-HT1Dα and 5-HT1Dβ receptor subtypes” value in data set [1] is listed as “barely discriminates”. The adverse cardiovascular events entry with humans was “certain adverse cardiovascular events”.
